Test results as given in US6127519A, “Calcitonin derivatives” (Tsumura & Co., priority 1990, dated 2000).
Bridge positions count the residues as written; N and C are the ends. Peptide text beside a SMILES is read from it.

System: calcium concentration in the serum
Assay: Test 1: reduction of calcium level in serum after tail vein administration to rats
Type: in vivo, rats of the Wistar strain
Settings: concentration 830 ng/ml, 1 ml/kg tail vein, female Wistar rats
Outline: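 Female Wistar rats, six weeks old, were assigned in groups of 4 and given the test peptides through the tail vein at 1 ml/kg. The peptides were dissolved in 1% aqueous sodium acetate (pH 4,0) containing 0.1% BSA. Blood (0.3 ml) was drawn from the neck vein immediately before dosing and at set times afterward. Serum was separated by centrifuging at 3500 rpm for 20 minutes. Calcium was measured on a TBA-380 analyzer with a Wako o-cpc kit, and the percentage reduction in serum calcium was calculated.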

CC[C@H](C)[C@H](NC(=O)[C@H](C)NC(=O)[C@@H](NC(=O)[C@H](CCC(N)=O)NC(=O)[C@@H]1CCCN1C(=O)[C@H](Cc1ccc(O)cc1)NC(=O)[C@@H](NC(=O)[C@H](CCC(N)=O)NC(=O)[C@H](CCCCN)NC(=O)[C@H](Cc1c[nH]cn1)NC(=O)[C@H](CC(C)C)NC(=O)[C@H](CCC(=O)O)NC(=O)[C@H](CCC(N)=O)NC(=O)[C@H](CO)NC(=O)[C@H](CC(C)C)NC(=O)[C@H](CCCCN)NC(=O)CNC(=O)[C@H](CC(C)C)NC(=O)[C@H](CCSC)NC(=O)[C@@H]1CSSC[C@H](N)C(=O)NCC(=O)N[C@@H](CC(N)=O)C(=O)N[C@@H](CC(C)C)C(=O)N[C@@H](CO)C(=O)N[C@@H]([C@@H](C)O)C(=O)N1)[C@@H](C)O)[C@@H](C)O)C(=O)NCC(=O)N[C@H](C(=O)NCC(=O)N[C@@H](C)C(=O)N1CCC[C@H]1C(N)=O)C(C)C [Peptide No. 2] (H-CGNLSTCMLGKLSQELHKQTYPQTAIGVGAP-NH2; disulfide 1-7)
Serum calcium level as percent of pre-dose baseline (0 hour (just before administration)): 100.0% | Serum calcium level as percent of pre-dose baseline (1 hour): 86.7% | Serum calcium level as percent of pre-dose baseline (2 hours): 87.7% | Serum calcium level as percent of pre-dose baseline (4 hours): 92.8% | Serum calcium level as percent of pre-dose baseline (6 hours): 90.1%
